# Assays:
# [1] = test system: BALB/3T3 (murine embryonic fibroblast); test: In vitro cytotoxicity, sulforhodamine B assay, normal cells; assay type: cell-based; conditions: for IC50: BALB/3T3 normal cells, normoxia, 72 h
# Method: (§1) Determination of the cytotoxic activity of compounds tested was performed separately in the normoxia or hypoxia conditions to reveal their potentially bioreductive properties. The experiment was carried out on three human cancer cell lines: MCF-7 breast, ES-2 ovarian and A549 lung adenocarcinoma as well as normal murine embryonic fibroblast BALB/3T3 cell line. In order to facilitate the preparation of solutions of the tested compounds, their initial solutions for dilution were made by dissolving the compounds in acetone.
# All cell lines were exposed to each compound tested at four different concentrations for 72 h. […] Additionally, all cell lines were exposed to acetone (Avantor Performance Materials, Gliwice, Poland) (the solvent used for tested compounds) at concentrations corresponding to those present in tested compounds’ dilutions.
# After 72 h of cell incubation with the compounds tested, the sulforhodamine B (SRB) assay was performed as described by Shekan et al. with minor modifications. The cells were fixed in situ by adding 50 µL per well of cold 50% trichloroacetic acid (Avantor Performance Materials, Gliwice, Poland) and were incubated at 4 °C for one hour. Following that, wells were washed five times with water and air dried. Next, 50 µL of 0.4% solution of sulforhodamine B (Sigma-Aldrich, Steinheim, Germany) in 1% acetic acid (Avantor Performance Materials, Gliwice, Poland) were added to each well and plates were incubated at room temperature for 0.5 h. After incubation time, the unbound dye was removed by washing plates five times with 1% acetic acid, whereas stains bound to cells was solubilized with 10 mM Tris base (Sigma-Aldrich, Steinheim, Germany). The absorbance of each solution was read by the Multiskan RC photometer (Labsystems Diagnostics Oy, Vantaa, Finland) at a 540 nm wavelength. […] IC50 values were calculated for each experiment on the basis of four different concentrations using Cheburator software, as described by Nevozhay. The tested compounds at each concentration were tested in triplicates in a single experiment and each experiment was repeated at least three times independently.
# [2] = test system: A549 (lung adenocarcinoma); test: In vitro cytotoxicity, sulforhodamine B assay; assay type: cell-based, human; conditions: for IC50 ± SD / IC50: 72 h
# Method: as §1, with “acetone. For this purpose, it was not possible to use more polar aprotic solvents (DMSO, DMF) due to the rapid isomerization of some of the tested complexes under their influence.” for “acetone.”
# All the cell lines were cultured at 37 °C in a humid atmosphere containing 5% CO2. Additionally, in the case of cytotoxicity assay with hypoxic conditions, the cells (MCF-7, ES-2, A549) were maintained at 37 °C in a humid atmosphere containing 5% CO2 and 1% O2 during the entire experiment.
# Twenty-four hours before adding the tested compounds, all cell lines were seeded in 96-well plates ([…] AG & Co, Nümbrecht Germany) in an appropriate media with 10^4 cells per well. All cell lines were exposed to each compound tested at four different concentrations for 72 h. […] Additionally, all cell lines were exposed to acetone (Avantor Performance Materials, Gliwice, Poland) (the solvent used for tested compounds) at concentrations corresponding to those present in tested compounds’ dilutions.
# After 72 h of cell incubation with the compounds tested, the sulforhodamine B (SRB) assay was performed as described by Shekan et al. with minor modifications. The cells were fixed in situ by adding 50 µL per well of cold 50% trichloroacetic acid (Avantor Performance Materials, Gliwice, Poland) and were incubated at 4 °C for one hour. Following that, wells were washed five times with water and air dried. Next, 50 µL of 0.4% solution of sulforhodamine B (Sigma-Aldrich, Steinheim, Germany) in 1% acetic acid (Avantor Performance Materials, Gliwice, Poland) were added to each well and plates were incubated at room temperature for 0.5 h. After incubation time, the unbound dye was removed by washing plates five times with 1% acetic acid, whereas stains bound to cells was solubilized with 10 mM Tris base (Sigma-Aldrich, Steinheim, Germany). The absorbance of each solution was read by the Multiskan RC photometer (Labsystems Diagnostics Oy, Vantaa, Finland) at a 540 nm wavelength. Results are presented as mean IC50 (concentration of the compound tested that inhibits cell proliferation by 50%) ± standard deviation. IC50 values were calculated for each experiment on the basis of four different concentrations using Cheburator software, as described by Nevozhay. The tested compounds at each concentration were tested in triplicates in a single experiment and each experiment was repeated at least three times independently.
# [3] = logP by shake-flask method (n-octanol / 0.9% NaCl, Pt by ICP-OES); assay type: physicochemical; conditions: octanol/water, n = 4
# Method: An important factor for the pharmacokinetics and the cellular accumulation of the investigated complexes, their lipophilicity was determined by measuring octanol/water partition coefficients (logP) with the shake-flask method. The logP determination was carried out based on a previously described procedure, modified by us to obtain more accurate and repeatable results.
# Weighted amounts of the tested platinum complex were suspended by 10 min sonification in 0.9% NaCl water solution, which was previously saturated with n-octanol, and mixed by shaking for 1 h. A simultaneously similar procedure was performed using 5 mL of n-octanol pre-saturated with 0.9% NaCl. Afterward, both suspensions were mixed together, shaken for an additional 1 h, and centrifuged for 5 min. After phase separation and evaporation in vacuo of 1 mL of sample to dryness, the final concentration of Pt was determined by ICP-OES (λ = 265.945 nm) and the partition coefficients were calculated. For the analysis, all samples were dissolved 1:1000 in 2.5% HCl. Each measurement was repeated four times and the final logP was calculated as the arithmetic mean of the four values.
# MCF-7 cells = test: Total cellular platinum uptake (ICP OES); assay type: cell-based, human; conditions: MCF-7, 4 h exposure, 10 µM
# Method: It is necessary to strongly emphasize that the underlined values have a statistically significant lack of variance homogeneity (Fisher–Snedecor’s F-test, Fα/2) with respect to reference drug variance, so Aspin–Welch’s t-test was applied in these cases. […] For ionic compound 8, platinum uptake value was not determined due to Pt concentrations in the cell lysates being below the instrument detection limit (IDL = 10 μg/kg) specified by the manufacturer for the device used.
# Cultured MCF-7 cells were seeded at a density of 4 × 10^5 cells/well of culture medium on a 6-well plate (Corning, NY, USA) to a final volume of 2.5 mL. […] The wells without MCF-7 cells were filled with 1 mL of culture medium-containing compound tested to act as a reference for nonspecific platinum complex adsorption on the surface of the well. After incubation, all wells were washed twice with 2 mL of cold PBS, filled with 400 μL of hot (ca 90 °C) 65% nitric acid, and maintained to stand for 2 h. All wells were finally filled with 1600 μL of water and this solution was collected and analyzed using iCAP 7400 Duo ICP OES instrument (Thermo Fisher Scientific) using the plasma axial view (10 s) at λ = 265.945 nm. The amount of Pt per cell was calculated by subtracting the amount of Pt found in the blank well from the amount of Pt found in the cell-containing wells and normalized to the average number of cells per well. The mean and SD values were calculated on the basis of 4 measurements.
smiles,measurement,setting,value
"Cn1cc([N+](=O)[O-])c[n+]1[Pt@SP2-2]([Cl])([Cl])[n+]1cc([N+](=O)[O-])cn1C [Compound 1, cis-dichloridobis(1-methyl-4-nitropyrazole)platinum(II)]",IC50,[1],> 100 µM
same,IC50 ± SD,"[2]; A549, hypoxia (1% O2)",inactive
same,IC50,"[2]; A549, normoxia",103 ± 28.8 µM
same,logP ± SD,[3],−0.35 ± 0.04
same,Total Cellular Platinum Uptake in MCF-7 Cells (± SD),MCF-7 cells,27 ± 6 ng Pt/10^6 Cells
"Cn1cc([N+](=O)[O-])c[n+]1[Pt@SP3-2]([Cl])([Cl])[n+]1cc([N+](=O)[O-])cn1C [Compound 2, trans-dichloridobis(1-methyl-4-nitropyrazole)platinum(II)]",IC50,[1],8.19 ± 2.9 µM
same,selectivity index (SI; ratio of cytotoxic concentration for healthy cells to that for cancer cells),"[1]; BALB/3T3 vs MCF-7, ES-2, A549, range",2.2–11.7
same,effect stronger than reference cisplatin (times),[2]; A549,2.6 times
same,IC50,"[2]; A549, hypoxia (1% O2)",7.7 ± 7.4 µM
same,IC50,"[2]; A549, normoxia",3.7 ± 2.9 µM
same,logP ± SD,[3],"1.43 ± 0.16,"
same,Total Cellular Platinum Uptake in MCF-7 Cells (± SD),MCF-7 cells,32 ± 6 ng Pt/10^6 Cells
"Cn1c([N+](=O)[O-])cc[n+]1[Pt@SP2-2]([Cl])([Cl])[n+]1ccc([N+](=O)[O-])n1C [Compound 3, cis-dichloridobis(1-methyl-5-nitropyrazole)platinum(II)]",IC50,[1],> 100 µM
same,IC50 ± SD,"[2]; A549, hypoxia (1% O2)",inactive
same,IC50,"[2]; A549, normoxia",53.4 ± 10 µM
same,logP ± SD,[3],−0.31 ± 0.04
same,Total Cellular Platinum Uptake in MCF-7 Cells (± SD),MCF-7 cells,82 ± 11 ng Pt/10^6 Cells
"Cn1c([N+](=O)[O-])cc[n+]1[Pt@SP3-2]([Cl])([Cl])[n+]1ccc([N+](=O)[O-])n1C [Compound 4, trans-dichloridobis(1-methyl-5-nitropyrazole)platinum(II)]",IC50,[1],74.4 ± 23.2 µM
same,IC50 ± SD,"[2]; A549, hypoxia (1% O2)",inactive
same,IC50,"[2]; A549, normoxia",31 ± 9.5 µM
same,logP ± SD,[3],0.46 ± 0.00
same,Total Cellular Platinum Uptake in MCF-7 Cells (± SD),MCF-7 cells,83 ± 12 ng Pt/10^6 Cells
